According to the NIST ThermoML archive (doi:10.1021/je4003916):

Assay: xn = mol fraction of the nth substance listed
Settings: 101 kPa, Liquid; for mass density: Vibrating tube method

C1CCOC1 [tetrahydrofuran] + CCCCO
Settings	mass density [kg/m3]	viscosity [mPa·s]
288.15 K, x1 = 0.1001	820.7	2.377
288.15 K, x1 = 0.2003	828.11	1.788
288.15 K, x1 = 0.3	835.61	1.416
288.15 K, x1 = 0.4003	843.28	1.15
288.15 K, x1 = 0.5	851.03	0.962
288.15 K, x1 = 0.6001	858.98	0.836
288.15 K, x1 = 0.7003	867.19	0.723
288.15 K, x1 = 0.8006	875.64	0.642
288.15 K, x1 = 0.9002	884.34	0.578
288.15 K, x1 = 1	893.29	0.522
293.15 K, x1 = 0.1001	816.75	2.111
293.15 K, x1 = 0.2003	823.99	1.612
293.15 K, x1 = 0.3	831.34	1.292
293.15 K, x1 = 0.4003	838.84	1.061
293.15 K, x1 = 0.5	846.43	0.895
293.15 K, x1 = 0.6001	854.21	0.785
293.15 K, x1 = 0.7003	862.27	0.683
293.15 K, x1 = 0.8006	870.54	0.61
293.15 K, x1 = 0.9002	879.08	0.555
293.15 K, x1 = 1	887.86	0.502
298.15 K, x1 = 0.1001	812.77	1.882
298.15 K, x1 = 0.2003	819.86	1.46
298.15 K, x1 = 0.3	827.04	1.184
298.15 K, x1 = 0.4003	834.38	0.979
298.15 K, x1 = 0.5	841.8	0.834
298.15 K, x1 = 0.6001	849.43	0.736
298.15 K, x1 = 0.7003	857.31	0.645
298.15 K, x1 = 0.8006	865.41	0.579
298.15 K, x1 = 0.9002	873.78	0.528
298.15 K, x1 = 1	882.4	0.48
303.15 K, x1 = 0.1001	808.76	1.687
303.15 K, x1 = 0.2003	815.69	1.331
303.15 K, x1 = 0.3	822.71	1.087
303.15 K, x1 = 0.4003	829.89	0.908
303.15 K, x1 = 0.5	837.15	0.779
303.15 K, x1 = 0.6001	844.61	0.692
303.15 K, x1 = 0.7003	852.32	0.61
303.15 K, x1 = 0.8006	860.26	0.55
303.15 K, x1 = 0.9002	868.46	0.502
303.15 K, x1 = 1	876.91	0.459
308.15 K, x1 = 0.1001	804.73	1.517
308.15 K, x1 = 0.2003	811.49	1.215
308.15 K, x1 = 0.3	818.36	1
308.15 K, x1 = 0.4003	825.36	0.843
308.15 K, x1 = 0.5	832.46	0.728
308.15 K, x1 = 0.6001	839.75	0.652
308.15 K, x1 = 0.7003	847.3	0.576
308.15 K, x1 = 0.8006	855.06	0.521
308.15 K, x1 = 0.9002	863.09	0.478
308.15 K, x1 = 1	871.38	0.44
313.15 K, x1 = 0.1001	800.66	1.368
313.15 K, x1 = 0.2003	807.26	1.111
313.15 K, x1 = 0.3	813.96	0.922
313.15 K, x1 = 0.4003	820.81	0.782
313.15 K, x1 = 0.5	827.74	0.681
313.15 K, x1 = 0.6001	834.86	0.608
313.15 K, x1 = 0.7003	842.24	0.543
313.15 K, x1 = 0.8006	849.83	0.494
313.15 K, x1 = 0.9002	857.7	0.454
313.15 K, x1 = 1	865.81	0.418
318.15 K, x1 = 0.1001	796.55	1.238
318.15 K, x1 = 0.2003	802.99	1.019
318.15 K, x1 = 0.3	809.53	0.852
318.15 K, x1 = 0.4003	816.21	0.727
318.15 K, x1 = 0.5	822.98	0.637
318.15 K, x1 = 0.6001	829.93	0.571
318.15 K, x1 = 0.7003	837.14	0.513
318.15 K, x1 = 0.8006	844.56	0.466
318.15 K, x1 = 0.9002	852.25	0.428
318.15 K, x1 = 1	860.2	0.396
323.15 K, x1 = 0.1001	792.4	1.139
323.15 K, x1 = 0.2003	798.67	0.949
323.15 K, x1 = 0.3	805.05	0.795
323.15 K, x1 = 0.4003	811.57	0.683
323.15 K, x1 = 0.5	818.17	0.599
323.15 K, x1 = 0.6001	824.96	0.546
323.15 K, x1 = 0.7003	832	0.487
323.15 K, x1 = 0.8006	839.25	0.444
323.15 K, x1 = 0.9002	846.77	0.41
323.15 K, x1 = 1	854.55	0.384

COC(=O)CCCCC(=O)OC [dimethyl 1,6-hexanedioate] + CCCCO
viscosity [mPa·s], stabinger viscometer
Settings	x1 = 0.0999	x1 = 0.2004	x1 = 0.2999	x1 = 0.4003	x1 = 0.4999	x1 = 0.6007	x1 = 0.6996	x1 = 0.7994	x1 = 0.8991	x1 = 1
288.15 K	2.635	2.426	2.384	2.422	2.519	2.66	2.884	3.08	3.379	3.751
293.15 K	2.322	2.147	2.114	2.149	2.237	2.361	2.556	2.723	2.977	3.289
298.15 K	2.057	1.911	1.886	1.92	2.003	2.11	2.287	2.425	2.649	2.91
303.15 K	1.837	1.716	1.699	1.732	1.805	1.902	2.06	2.183	2.374	2.604
308.15 K	1.646	1.546	1.536	1.569	1.636	1.724	1.868	1.975	2.144	2.343
313.15 K	1.481	1.4	1.396	1.428	1.491	1.572	1.704	1.797	1.947	2.121
318.15 K	1.338	1.272	1.273	1.306	1.365	1.44	1.562	1.645	1.778	1.933
323.15 K	1.229	1.176	1.179	1.214	1.268	1.339	1.456	1.528	1.648	1.79
